# According to patent US20190151341A1, “APPLICATION OF TENVERMECTIN FOR PREVENTING AND TREATING PARASITE INFECTION” (ZHEJIANG HISUN PHARMACEUTICAL CO., LTD., priority 2016, published 2019):
# Test system: allogynogenetic crucian carp
# Assay: Toxicity to allogynogenetic crucian carp, semi-static method, 96 hours
# Type: in vivo
# Conditions: allogynogenetic crucian carp
# Text: Test fish and water: allogynogenetic crucian carp was purchased from Taowang Farm in Jiaojiang District, Taizhou City, with a body length of (9.60±0.52) cm and a body weight of (28.22±3.44) g. The healthy and vigorous fish with the same size were selected and temporarily raised in an indoor aquarium. They were domesticated for 7 days indoors before the test. The natural mortality rate was zero.
# 99.4% Tenvermectin A (the mass content of tenvermectin B was 0.02%) (Zhejiang Hisun Pharmaceutical Co., Ltd.);
# Tenvermectin (the mass ratio of tenvermectin A/tenvermectin B was 95/5) (Zhejiang Hisun Pharmaceutical Co., Ltd.);
# Tenvermectin (the mass ratio of tenvermectin A/tenvermectin B was 90/10) (Zhejiang Hisun Pharmaceutical Co., Ltd.);
# Tenvermectin (the mass ratio of tenvermectin A/tenvermectin B was 85/15) (Zhejiang Hisun Pharmaceutical Co., Ltd.);
# 99.1% Tenvermectin B (the mass content of tenvermectin A was 0.51%) (Zhejiang Hisun Pharmaceutical Co., Ltd.);
# 92% Avermectin (Zhejiang Qianjiang Biochemical Co., Ltd.);
# 96% Ivermectin (Zhejiang Hisun Pharmaceutical Co., Ltd.);
# 90% Methylamino avermectin benzoate (Emamectin benzoate) (Zhejiang Shenghua Biok Biotechnology Co., Ltd.).
# Method: semi-static method. […]
Compound,"Survival condition (survival rates/%) (0.5 ppm, 8 h) [%]","Survival condition (survival rates/%) (0.5 ppm, 24 h) [%]","Survival condition (survival rates/%) (0.5 ppm, 48 h) [%]","Survival condition (survival rates/%) (0.5 ppm, 72 h) [%]","Survival condition (survival rates/%) (0.5 ppm, 96 h) [%]","Survival condition (survival rates/%) (1.0 ppm, 8 h) [%]","Survival condition (survival rates/%) (1.0 ppm, 24 h) [%]","Survival condition (survival rates/%) (1.0 ppm, 48 h) [%]","Survival condition (survival rates/%) (1.0 ppm, 72 h) [%]","Survival condition (survival rates/%) (1.0 ppm, 96 h) [%]","Survival condition (survival rates/%) (2.0 ppm, 8 h) [%]","Survival condition (survival rates/%) (2.0 ppm, 24 h) [%]","Survival condition (survival rates/%) (2.0 ppm, 48 h) [%]","Survival condition (survival rates/%) (2.0 ppm, 72 h) [%]","Survival condition (survival rates/%) (2.0 ppm, 96 h) [%]",toxicity grade according to LC50 (96-hour LC50)
"COC1CC(OC2C(C)OC(OC3C(C)=CCC4CC(CC5(CCC(C)C(C)O5)O4)OC(=O)C4C=C(C)C(O)C5OCC(=CC=CC3C)C45O)CC2OC)OC(C)C1O (stereo not drawn) [Tenvermectin A, tenvermectin A]",100,100,100,100,100,100,100,100,100,100,100,100,100,100,100,low toxic
"CC[C@H]1O[C@]2(CC[C@@H]1C)C[C@@H]1C[C@@H](C/C=C(\C)[C@@H](O[C@H]3C[C@H](OC)[C@@H](O[C@H]4C[C@H](OC)[C@@H](O)[C@H](C)O4)[C@H](C)O3)[C@@H](C)/C=C/C=C3\CO[C@@H]4[C@H](O)C(C)=C[C@@H](C(=O)O1)[C@]34O)O2 [Tenvermectin B, tenvermectin B]",100,80,33,0,,75,3,,,,20,0,,,,
